In patent US8552018B2, “Substituted tricyclic compounds as protein kinase inhibitors” (Arizona Board of Regents on behalf of the University of …, priority 2003, dated 2013):

Experiments:
Assay type in all cases: cell-based
[1] = system: GIST882 cell line; experiment: Cancer cell cytotoxicity assay (sulforhodamine B); settings: for IC50: Homo sapiens, 96 h, GIST882, 4 days, read-out: IC50 c-kit GIST882
Procedure: To validate the hypothesis that the designed c-kit/PDGFR tyrosine kinase inhibitors mediate GIST882 cell killing and PDGFR-mediated cell killing of pancreatic cancer cell lines (CFPAC-1, PANC-1 and MIA PaCa-2), an in vitro cytotoxicity assay was performed. The GIST882 cell line used in this study has a c-kit gain-of-function mutation (K642E). […] First the cells were cultured. GIST882 cells were provided by Dr. Jonathan A. Fletcher (Dana-Farber Cancer Institute, Boston, Mass.). PANC-1 and MIAPaCa-2 cells were provided by Dr. Daniel Von Hoff (Arizona Cancer Center, Tucson, Ariz.). […] All the cell lines were incubated in a humidified incubator at 37° C. with 5% CO2 atmosphere.
(§1) After incubation for 4 days at 37° C. in a humidified incubator, the cells were fixed with 10% Trichloroacetic acid solution (Catalog No. 490-10, Sigma). Subsequently, they were labeled with 0.04% Sulforhodamine B (S9012, Sigma) in 1% acetic acid. After multiple washes to remove excess dye, 100 μl of 50 mM Tris solution was added to each well in order to dissolve the dye. The absorbance of each well was read on a plate reader (Wallac Vector^2, PerkinElmer) at the wavelength of 570 nm. Data were expressed as the percentage of survival of control calculated from the absorbance corrected for background absorbance. The surviving percent of cells was determined by dividing the mean absorbance values of the […] by the mean absorbance values of the control and multiplying by 100.

[2] = system: PANC-1 cells; experiment: Cancer cell cytotoxicity assay (sulforhodamine B); settings: Homo sapiens, 96 h; PANC-1, 4 days; read-out: IC50 PDGFR PANC-1
Procedure: (§2) To validate the hypothesis that the designed c-kit/PDGFR tyrosine kinase inhibitors mediate GIST882 cell killing and PDGFR-mediated cell killing of pancreatic cancer cell lines (CFPAC-1, PANC-1 and MIA PaCa-2), an in vitro cytotoxicity assay was performed. The GIST882 cell line used in this study has a c-kit gain-of-function mutation (K642E). The assay utilized the Cell Titer 965 Non-Radioactive Cell Proliferation Assay (Promega Corp., Madison, Wis.). First the cells were cultured. GIST882 cells were provided by Dr. Jonathan A. Fletcher (Dana-Farber Cancer Institute, Boston, Mass.). PANC-1 and MIAPaCa-2 cells were provided by Dr. Daniel Von Hoff (Arizona Cancer Center, Tucson, Ariz.). GIST882 cells were cultured in RPMI 1640 medium (Cat #21870-076, Invitrogen Corporation) supplemented with 300 mg/L L-glutamine, 100 unit/ml penicillin, 100 μg/ml streptomycin and 15% fetal bovine serum. PANC-1 and MIAPaCa-2 cells were maintained in RPMI 1640 medium (cat #10-040, Mediatech, Inc.) supplemented with 100 unit/ml penicillin, 100 μg/ml streptomycin and 10% fetal bovine serum. All the cell lines were incubated in a humidified incubator at 37° C. with 5% CO2 atmosphere.
as §1, with “Cells were plated at a density of 2000 to 10000 cells per well, depending on their growth rate, in 0.1 mL medium on day 0 in 96-well Falcon microtiter plates (#3072, Becton-Dickinson Labware, Lincoln Park, N.J.). On day 1, 10 μL of serial dilutions of the individual compounds were added to the plates in replicates of 4. After incubation” for “After incubation”

[3] = system: MIAPaCa-2 cells; experiment: Cancer cell cytotoxicity assay (sulforhodamine B); settings: Homo sapiens, MIA PaCa-2, 96 h; MIAPaCa-2, 4 days; read-out: IC50 PDGFR MIAPaCa
Procedure: as §2
as §1, with “Cells were plated at a density of 2000 to 10000 cells per well, depending on their growth rate, in 0.1 mL medium on day 0 in 96-well Falcon microtiter plates (#3072, Becton-Dickinson Labware, Lincoln Park, N.J.). On day 1, 10 μL of serial dilutions of the individual compounds were added to the plates in replicates of 4. After incubation” for “After incubation”

[4] = system: GIST882 cell line; experiment: GIST882 cell growth assay (Cell-Titer-Glo); settings: for IC50: Homo sapiens, GIST882, 96 hours
Procedure: (§3) Briefly, cells are seeded into 96-well, tissue-culture treated, opaque white plates (Thermo Electron, Vantaa, Finland), at between 5000 and 7500 cells per well, depending on the speed of cell proliferation, in 100 μl of appropriate growth medium (determined by the ATCC). Cells are then exposed to the appropriate concentration of drug or an equal amount of DMSO (drug diluent) and allowed to grow in its presence for 96 hours. Following this, 100 μl of Cell-Titer-Glo reagent (Promega, Inc., Madison, Wis.) is added to each well. Plates are then shaken for 2 minutes at room temperature to allow for cell lysis and incubated for 10 minutes to stabilize the luminescent signal. Similar to the Kinase-Glo assay reagent, this reagent contains both luciferase enzyme and its substrate luciferin. Luciferase, activated by ATP in the cell lysate, catalyzes the conversion of luciferin to oxyluciferin, a reaction which produces light. The amount of light produced is proportionate to the amount of ATP in the cell lysate, which is itself proportional to cell number and gives an index of cellular proliferation.
as §3, with “Various compounds of the invention, including (IV-1-3) (also referred to as HPK16), (III-1-3) (also referred to as HPK56), (III-1-4) (also referred to as HPK57), (III-1-5) (also referred to as HPK59), and (II-2-7) (also referred to as HPK61) were tested for activity against GIST tumor cells using the GIST882 cell line. Briefly,” for “Briefly,”

Compound: COc1cc2ncnc(N3CCN(C(=S)Nc4ccc(S(=O)(=O)Nc5ncccn5)cc4)CC3)c2cc1OC [HPK16, 4-(6,7-Dimethoxy-quinazolin-4-yl)-piperazine-1-carbothioic acid [4-(pyrimidin-2-ylsulfamoly)-phenyl]-amide]
- IC50 [1]: 50 µM
- IC50 [2]: > 50 µM
- IC50 [3]: > 50 µM
- IC50 [4]: 50 µM

Compound: S=C(NCc1ccc2c(c1)OCO2)N1CCN(c2ncnc3c2oc2ccccc23)CC1 [HPK56, 4-Benzo[4,5]furo[3,2-d]pyrimidin-4-yl-piperazine-1-carbothioic acid (benzo[1,3]dioxol-5-ylmethyl)-amide]
- cells alive at day 4 ([1]; GIST882, day 4): 5%
- IC50 [1]: 1.6 µM
- IC50 [2]: 3 µM
- IC50 [3]: 2.1 µM
- inhibitory activity in GIST882 cell line (in words) ([4]; FIG. 29, 96 hours): highest inhibitory activity
- IC50 [4]: 1.6 µM

Compound: COc1cc2[nH]c3ncnc(N4CCN(C(=S)Nc5ccc(S(=O)(=O)Nc6ncccn6)cc5)CC4)c3c2cc1OC [HPK62, 4-(6,7-Dimethoxy-9H-1,3,9-triaza-fluoren-4-yl)-piperazine-1-carbothioic acid [4-(pyrimidin-2-ylsulfamoyl)-phenyl]-amide]
- IC50 [1]: 28 µM
- IC50 [2]: > 50 µM
- IC50 [3]: > 50 µM
- IC50 [4]: 28 µM
